Reference: PubChem BioAssay (NCI)
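Values below derive from 48-hour exposures of cells grown in 96-well plates, with endpoints linearly interpolated between the two concentrations bracketing the appropriate inhibition level. TGI: total growth inhibition.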

Legend:
Test in all cases: NCI tumour cell line growth inhibition, 48 h
786-0 renal = system: 786-0 renal
A498 renal = system: A498 renal
A549 NSCLC = system: A549 NSCLC
ACHN renal = system: ACHN renal
BT-549 breast = system: BT-549 breast
CAKI-1 renal = system: CAKI-1 renal
CCRF-CEM leukemia = system: CCRF-CEM leukemia
COLO 205 colon = system: COLO 205 colon
DLD-1 colon = system: DLD-1 colon
DMS 114 small cell lung = system: DMS 114 small cell lung
DMS 273 small cell lung = system: DMS 273 small cell lung
DU-145 prostate = system: DU-145 prostate
EKVX NSCLC = system: EKVX NSCLC
HCC-2998 colon = system: HCC-2998 colon
HCT-116 colon = system: HCT-116 colon
HCT-15 colon = system: HCT-15 colon
HL-60(TB) leukemia = system: HL-60(TB) leukemia
HOP-18 NSCLC = system: HOP-18 NSCLC
HOP-62 NSCLC = system: HOP-62 NSCLC
HOP-92 NSCLC = system: HOP-92 NSCLC
HS 578T breast = system: HS 578T breast
HT29 colon = system: HT29 colon
IGROV1 ovarian = system: IGROV1 ovarian
K-562 leukemia = system: K-562 leukemia
KM12 colon = system: KM12 colon
KM20L2 colon = system: KM20L2 colon
LOX IMVI melanoma = system: LOX IMVI melanoma
LXFL 529 NSCLC = system: LXFL 529 NSCLC
M14 melanoma = system: M14 melanoma
M19-MEL melanoma = system: M19-MEL melanoma
MALME-3M melanoma = system: MALME-3M melanoma
MDA-MB-231 breast = system: MDA-MB-231 breast
MDA-MB-435 = system: MDA-MB-435
MDA-N = system: MDA-N
MOLT-4 leukemia = system: MOLT-4 leukemia
NCI-H226 lung = system: NCI-H226 lung
NCI-H23 lung = system: NCI-H23 lung
NCI-H522 lung = system: NCI-H522 lung
NCI/ADR-RES ovarian = system: NCI/ADR-RES ovarian
OVCAR-3 ovarian = system: OVCAR-3 ovarian
OVCAR-4 ovarian = system: OVCAR-4 ovarian
OVCAR-5 ovarian = system: OVCAR-5 ovarian
OVCAR-8 ovarian = system: OVCAR-8 ovarian
PC-3 prostate = system: PC-3 prostate
RPMI-8226 leukemia = system: RPMI-8226 leukemia
RXF 393 renal = system: RXF 393 renal
SF-268 CNS = system: SF-268 CNS
SF-295 CNS = system: SF-295 CNS
SF-539 CNS = system: SF-539 CNS
SK-MEL-2 melanoma = system: SK-MEL-2 melanoma
SK-MEL-28 melanoma = system: SK-MEL-28 melanoma
SK-MEL-5 melanoma = system: SK-MEL-5 melanoma
SK-OV-3 ovarian = system: SK-OV-3 ovarian
SN12C renal = system: SN12C renal
SNB-19 CNS = system: SNB-19 CNS
SNB-75 CNS = system: SNB-75 CNS
SNB-78 CNS = system: SNB-78 CNS
SR leukemia = system: SR leukemia
SW-620 colon = system: SW-620 colon
TK-10 renal = system: TK-10 renal
U251 CNS = system: U251 CNS
UACC-257 melanoma = system: UACC-257 melanoma
UACC-62 melanoma = system: UACC-62 melanoma
UO-31 renal = system: UO-31 renal
XF 498 CNS = system: XF 498 CNS

CCNCC(=O)O[C@]1(CC)C(=O)OCc2c1cc1n(c2=O)Cc2cc3ccccc3nc2-1
TGI (786-0 renal): 1.05 µM | TGI (A498 renal): 4.4 µM | TGI (A549 NSCLC): 13.5 µM | TGI (ACHN renal): 1.98 µM | TGI (BT-549 breast): 26.7 µM | TGI (CAKI-1 renal): 4.65 µM | TGI (CCRF-CEM leukemia): 0.418 µM | TGI (COLO 205 colon): 16.5 µM | TGI (DLD-1 colon): > 100 µM | TGI (DMS 114 small cell lung): 2.53 µM | TGI (DMS 273 small cell lung): 0.328 µM | TGI (DU-145 prostate): 1 µM | TGI (EKVX NSCLC): > 100 µM | TGI (HCC-2998 colon): 6.88 µM | TGI (HCT-116 colon): 3.29 µM | TGI (HCT-15 colon): > 100 µM | TGI (HL-60(TB) leukemia): 0.849 µM | TGI (HOP-18 NSCLC): 20.5 µM | TGI (HOP-62 NSCLC): 0.274 µM | TGI (HOP-92 NSCLC): 13.8 µM | TGI (HS 578T breast): > 100 µM | TGI (HT29 colon): > 32.9 µM | TGI (IGROV1 ovarian): 24.5 µM | TGI (K-562 leukemia): > 100 µM | TGI (KM12 colon): 13.4 µM | TGI (KM20L2 colon): > 100 µM | TGI (LOX IMVI melanoma): 1.22 µM | TGI (LXFL 529 NSCLC): 42.6 µM | TGI (M14 melanoma): 13.7 µM | TGI (M19-MEL melanoma): 5.44 µM | TGI (MALME-3M melanoma): 13.2 µM | TGI (MDA-MB-231 breast): 98 µM | TGI (MDA-MB-435): 7.82 µM | TGI (MDA-N): 6.95 µM | TGI (MOLT-4 leukemia): 0.159 µM | TGI (NCI-H226 lung): 1.29 µM | TGI (NCI-H23 lung): 0.879 µM | TGI (NCI-H522 lung): 7.97 µM | TGI (NCI/ADR-RES ovarian): 1.39 µM | TGI (OVCAR-3 ovarian): 15.9 µM | TGI (OVCAR-4 ovarian): 8.84 µM | TGI (OVCAR-5 ovarian): 13.2 µM | TGI (OVCAR-8 ovarian): 5.68 µM | TGI (PC-3 prostate): > 100 µM | TGI (RPMI-8226 leukemia): 4.07 µM | TGI (RXF 393 renal): 1.74 µM | TGI (SF-268 CNS): > 100 µM | TGI (SF-295 CNS): 4.66 µM | TGI (SF-539 CNS): 0.574 µM | TGI (SK-MEL-2 melanoma): 7.92 µM | TGI (SK-MEL-28 melanoma): > 55.5 µM | TGI (SK-MEL-5 melanoma): 1.27 µM | TGI (SK-OV-3 ovarian): 10.8 µM | TGI (SN12C renal): 11.2 µM | TGI (SNB-19 CNS): > 100 µM | TGI (SNB-75 CNS): 7.91 µM | TGI (SNB-78 CNS): > 100 µM | TGI (SR leukemia): 0.0327 µM | TGI (SW-620 colon): > 62.5 µM | TGI (TK-10 renal): 99 µM | TGI (U251 CNS): 6.61 µM | TGI (UACC-257 melanoma): 12.2 µM | TGI (UACC-62 melanoma): 0.677 µM | TGI (UO-31 renal): 1.7 µM | TGI (XF 498 CNS): 1.56 µM
